How the values were obtained:
[1] = system: tobacco leaves; experiment: Effect of peptide infiltration on tobacco leaves; assay type: in vivo; details: for Size of the lesions in infiltrated tobacco leaves (diameter): 250 μM, 100 μL infiltrated into mesophyll, measured after 48 h; for Reaction observed in the area of infiltration of tobacco leaves: in contrast to melittin
Description: BP100 and the 36 lipopeptides were evaluated for their effect upon infiltration on tobacco leaves as described previously. Peptide solutions of 50, 150 and 250 μM were infiltrated (100 μL) into the mesophylls of fully expanded tobacco leaves. Infiltrations were carried out in a single leaf, and for each peptide and dose, at least three leaves randomly distributed in different plants were inoculated. Control infiltrations with water (negative control) or melittin (positive control) at the same molar concentration were performed. The appearance of symptoms on the leaves was followed for 48 h after infiltration and measured as a lesion diameter.

[2] = system: Xanthomonas fragariae Xf349-9A; experiment: MIC, growth inhibition in microtiter plates (TSB); assay type: cell-based; details: Xf, 25°C, 48 h, OD 600 nm, lowest concentration with no growth, given as interval of tested concentrations, three replicates, experiment repeated twice
Method in brief: (§1)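 Peptides, dissolved in water at 1 mM and filter-sterilized, were diluted and mixed with bacterial suspension (10^8 CFU mL^-1 before mixing) in TSB. Plates were incubated at 25°C with shaking, and OD600 was read hourly for 48 h. MIC was the lowest concentration with no growth at the end.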

[3] = system: Erwinia amylovora PMV6076; experiment: MIC, growth inhibition in microtiter plates (TSB); assay type: cell-based; details: Ea, 25°C, 48 h, OD 600 nm, lowest concentration with no growth, given as interval of tested concentrations, three replicates, experiment repeated twice
Method in brief: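 The MIC is the lowest peptide concentration showing no growth after 48 h at 25 °C, with growth followed hourly by OD600 in TSB (triplicate wells, experiment repeated twice). Inocula came from 10^8 CFU mL^-1 suspensions of cells grown 24 h, or 48 h for X. fragariae, at 25 °C.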

[4] = system: Pseudomonas syringae pv. syringae EPS94; experiment: MIC, growth inhibition in microtiter plates (TSB); assay type: cell-based; details: Pss, 25°C, 48 h, OD 600 nm, lowest concentration with no growth, given as interval of tested concentrations, three replicates, experiment repeated twice
Method in brief: as §1

[5] = system: Pseudomonas syringae pv. actinidiae Psa3700.1.1; experiment: MIC, growth inhibition in microtiter plates (TSB); assay type: cell-based; details: Psa, 25°C, 48 h, OD 600 nm, lowest concentration with no growth, given as interval of tested concentrations, three replicates, experiment repeated twice
Method in brief: as §1

[6] = system: Xanthomonas axonopodis pv. vesicatoria 2133–2; experiment: MIC, growth inhibition in microtiter plates (TSB); assay type: cell-based; details: Xav, 25°C, 48 h, OD 600 nm, lowest concentration with no growth, given as interval of tested concentrations, three replicates, experiment repeated twice
Method in brief: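 Agar-grown cells in water (10^8 CFU mL^-1 stock suspension) + serially diluted peptide (1 mM water stock) in TSB; 25°C, 48 h, OD600 hourly; no-growth endpoint gives MIC.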

[7] = system: Xanthomonas arboricola pv. pruni CFBP5563; experiment: MIC, growth inhibition in microtiter plates (TSB); assay type: cell-based; details: Xap, 25°C, 48 h, OD 600 nm, lowest concentration with no growth, given as interval of tested concentrations, three replicates, experiment repeated twice
Method in brief: as §1

[8] = system: T1, proteinase K; experiment: Susceptibility to protease degradation; assay type: in vitro ADME; details: proteinase K (isolated protease) in TRIS buffer; 50 μg/mL peptide, 1 μg/mL proteinase K, 100 mM TRIS buffer pH 7.6, 25°C, 60 min; decrease of HPLC peak area (220 nm); read-out: Digestion with proteinase K (percentage of degraded peptide)
T1 construct: purchased Sigma-Aldrich Corporation, Spain
Description: Digestion of BP100 and of 16 selected lipopeptides was carried out by treating 50 μg/mL peptide with 1 μg/mL proteinase K (Sigma-Aldrich Corporation, Spain) in 100 mM TRIS buffer, pH 7.6, at 25°C. The peptide cleavage after 60 min was determined by HPLC using a Kromasil (4.6 × 40 mm; 3 μm particle size) C18 reverse-phase column. Linear gradients of 0.1% aqueous TFA and 0.1% TFA in CH3CN were run from 0.98:0.02 to 0:1 over 12 min with UV detection at 220 nm. Digestion was estimated as the percentage of degraded lipopeptide calculated from the decrease of the HPLC peak area of the native peptide.

SMILES | Size of the lesions in infiltrated tobacco leaves (diameter) [1] [mm] | MIC [2] [µM] | MIC [3] [µM] | MIC [4] [µM] | MIC [5] [µM] | MIC [6] [µM] | MIC [7] [µM] | metabolised at 1 h, 50 μg/mL [8] [%] | Reaction observed in the area of infiltration of tobacco leaves [1]
CCCC(=O)NCCCC[C@H](NC(=O)[C@@H](NC(=O)[C@H](CCCCN)NC(=O)[C@H](CCCCN)NC(=O)[C@H](Cc1ccccc1)NC(=O)[C@H](CC(C)C)NC(=O)[C@H](CCCCN)NC(=O)[C@H](CCCCN)NC(C)=O)[C@@H](C)CC)C(=O)N[C@@H](CCCCN)C(=O)N[C@@H](Cc1ccc(O)cc1)C(=O)N[C@@H](CC(C)C)C(N)=O [BP387, Ac-KKLFKKIK(COC3H7)KYL-NH2] | 9.2 ± 0.96 | 1.6 to 3.1 | 3.1 to 6.2 | 3.1 to 6.2 | 3.1 to 6.2 | 1.6 to 3.1 | 3.1 to 6.2 | 15 | –
CCCCCC(=O)NCCCC[C@H](NC(=O)[C@H](CC(C)C)NC(=O)[C@H](CCCCN)NC(=O)[C@H](CCCCN)NC(C)=O)C(=O)N[C@@H](CCCCN)C(=O)N[C@@H](CCCCN)C(=O)N[C@H](C(=O)N[C@@H](CC(C)C)C(=O)N[C@@H](CCCCN)C(=O)N[C@@H](Cc1ccc(O)cc1)C(=O)N[C@@H](CC(C)C)C(N)=O)[C@@H](C)CC [BP371, Ac-KKLK(COC5H11)KKILKYL-NH2] | – | 3.1 to 6.2 | 3.1 to 6.2 | 3.1 to 6.2 | 3.1 to 6.2 | 3.1 to 6.2 | 3.1 to 6.2 | – | –
CCCCCC(=O)NCCCC[C@H](NC(=O)[C@H](CCCCN)NC(=O)[C@H](CCCCN)NC(=O)[C@H](Cc1ccccc1)NC(=O)[C@H](CC(C)C)NC(=O)[C@H](CCCCN)NC(=O)[C@H](CCCCN)NC(C)=O)C(=O)N[C@@H](CC(C)C)C(=O)N[C@@H](CCCCN)C(=O)N[C@@H](Cc1ccc(O)cc1)C(=O)N[C@@H](CC(C)C)C(N)=O [BP374, Ac-KKLFKKK(COC5H11)LKYL-NH2] | – | 3.1 to 6.2 | 3.1 to 6.2 | 6.2 to 12.5 | 3.1 to 6.2 | 6.2 to 12.5 | 6.2 to 12.5 | – | –
CCCC(=O)NCCCC[C@H](NC(=O)[C@H](CCCCN)NC(=O)[C@H](CC(C)C)NC(=O)[C@@H](NC(=O)[C@H](CCCCN)NC(=O)[C@H](CCCCN)NC(=O)[C@H](Cc1ccccc1)NC(=O)[C@H](CC(C)C)NC(=O)[C@H](CCCCN)NC(=O)[C@H](CCCCN)NC(C)=O)[C@@H](C)CC)C(=O)N[C@@H](CC(C)C)C(N)=O [BP389, Ac-KKLFKKILKK(COC3H7)L-NH2] | 9.0 ± 2.9 | 1.6 to 3.1 | 3.1 to 6.2 | 6.2 to 12.5 | 3.1 to 6.2 | 0.8 to 1.6 | 0.8 to 1.6 | 29 | –
CCCC(=O)NCCCC[C@H](NC(=O)[C@H](CCCCN)NC(=O)[C@H](Cc1ccccc1)NC(=O)[C@H](CC(C)C)NC(=O)[C@H](CCCCN)NC(=O)[C@H](CCCCN)NC(C)=O)C(=O)N[C@H](C(=O)N[C@@H](CC(C)C)C(=O)N[C@@H](CCCCN)C(=O)N[C@@H](Cc1ccc(O)cc1)C(=O)N[C@@H](CC(C)C)C(N)=O)[C@@H](C)CC [BP385, Ac-KKLFKK(COC3H7)ILKYL-NH2] | – | 1.6 to 3.1 | 6.2 to 12.5 | 6.2 to 12.5 | 6.2 to 12.5 | 0.8 to 1.6 | 0.8 to 1.6 | – | –
CCCC(=O)NCCCC[C@H](NC(=O)[C@H](CCCCN)NC(C)=O)C(=O)N[C@@H](CC(C)C)C(=O)N[C@@H](Cc1ccccc1)C(=O)N[C@@H](CCCCN)C(=O)N[C@@H](CCCCN)C(=O)N[C@H](C(=O)N[C@@H](CC(C)C)C(=O)N[C@@H](CCCCN)C(=O)N[C@@H](Cc1ccc(O)cc1)C(=O)N[C@@H](CC(C)C)C(N)=O)[C@@H](C)CC [BP381, Ac-KK(COC3H7)LFKKILKYL-NH2] | 10.8 ± 1.9 | 1.6 to 3.1 | 3.1 to 6.2 | 3.1 to 6.2 | 3.1 to 6.2 | 1.6 to 3.1 | 3.1 to 6.2 | 53 | –
CCCCCC(=O)NCCCC[C@H](NC(=O)[C@H](Cc1ccc(O)cc1)NC(=O)[C@H](CCCCN)NC(=O)[C@H](CC(C)C)NC(=O)[C@@H](NC(=O)[C@H](CCCCN)NC(=O)[C@H](CCCCN)NC(=O)[C@H](Cc1ccccc1)NC(=O)[C@H](CC(C)C)NC(=O)[C@H](CCCCN)NC(=O)[C@H](CCCCN)NC(C)=O)[C@@H](C)CC)C(N)=O [BP378, Ac-KKLFKKILKYK(COC5H11)-NH2] | 13.2 ± 4.7 | 3.1 to 6.2 | 3.1 to 6.2 | 6.2 to 12.5 | 3.1 to 6.2 | 3.1 to 6.2 | 3.1 to 6.2 | 45 | not a typical necrosis
CCCC(=O)NCCCC[C@H](NC(=O)[C@H](Cc1ccc(O)cc1)NC(=O)[C@H](CCCCN)NC(=O)[C@H](CC(C)C)NC(=O)[C@@H](NC(=O)[C@H](CCCCN)NC(=O)[C@H](CCCCN)NC(=O)[C@H](Cc1ccccc1)NC(=O)[C@H](CC(C)C)NC(=O)[C@H](CCCCN)NC(=O)[C@H](CCCCN)NC(C)=O)[C@@H](C)CC)C(N)=O [BP390, Ac-KKLFKKILKYK(COC3H7)-NH2] | – | 3.1 to 6.2 | 3.1 to 6.2 | 6.2 to 12.5 | 6.2 to 12.5 | 3.1 to 6.2 | 6.2 to 12.5 | – | –
CCCCCCCCCCCC(=O)NCCCC[C@H](NC(=O)[C@H](CC(C)C)NC(=O)[C@@H](NC(=O)[C@H](CCCCN)NC(=O)[C@H](CCCCN)NC(=O)[C@H](Cc1ccccc1)NC(=O)[C@H](CC(C)C)NC(=O)[C@H](CCCCN)NC(=O)[C@H](CCCCN)NC(C)=O)[C@@H](C)CC)C(=O)N[C@@H](Cc1ccc(O)cc1)C(=O)N[C@@H](CC(C)C)C(N)=O [BP400, Ac-KKLFKKILK(COC11H23)YL-NH2] | – | 3.1 to 6.2 | >25 | >25 | >25 | 1.6 to 3.1 | 1.6 to 3.1 | – | not a typical necrosis
CC[C@H](C)[C@H](NC(=O)[C@H](CCCCN)NC(=O)[C@H](CCCCN)NC(=O)[C@H](Cc1ccccc1)NC(=O)[C@H](CC(C)C)NC(=O)[C@H](CCCCN)NC(=O)[C@@H](N)CCCCN)C(=O)N[C@@H](CC(C)C)C(=O)N[C@@H](CCCCN)C(=O)N[C@@H](Cc1ccc(O)cc1)C(=O)N[C@@H](CC(C)C)C(N)=O [BP100, H-Lys-Lys-Leu-Phe-Lys-Lys-Ile-Leu-Lys-Tyr-Leu-NH2] | – | 3.1 to 6.2 | 3.1 to 6.2 | 3.1 to 6.2 | 1.6 to 3.1 | 3.1 to 6.2 | 1.6 to 3.1 | 24 | –
